How the values were obtained:
[1] = Thermogravimetric (TG) analysis, weight loss due to decomposition; type: physicochemical; details: heated at 10° C./min from 30 to 500° C., under nitrogen (80 mL/min)
Protocol: Thermogravimetric analyses were recorded in a Mettler Toledo SDTA851e. Samples of 3-4 mg were weighted into 40 μL aluminium crucibles with a pinhole lid, and heated at 10° C./min from 30 to 500° C., under nitrogen (80 mL/min).

[2] = cited from earlier work

Compound	TG analysis: weight loss beginning due to decomposition (temperature) [1]	amount of ibuprofen that dissolves in 1 ml of water [2]
CC(C)Cc1ccc([C@H](C)C(=O)O)cc1.COc1cccc([C@]2(O)CCCC[C@H]2CN(C)C)c1 [(−)-tramadol-(S)-ibuprofen salt, Phase 1]	140 °C	
CC(C)Cc1ccc([C@H](C)C(=O)O)cc1.COc1cccc([C@]2(O)CCCC[C@H]2CN(C)C)c1 [(−)-tramadol-(S)-ibuprofen salt, Phase 2, (−)-tramadol-(S)-ibuprofen Salt, Phase 2]	130 °C	
CC(C)Cc1ccc(C(C)C(=O)O)cc1 (stereo not shown) [ibuprofen, 2-[4-(2-methylpropyl)phenyl]propanoic acid]		Less than 1 mg
(+)-tramadol-(S)-ibuprofen salt	130 °C	
